Measurements: paper PMC11861906, “Structural basis for lipid-mediated activation of G protein-coupled receptor GPR55” (Nature Communications, 2025)

Columns and labels:
Type in all cases: cell-based
[1] = target: GPR55 mutant G152W (Gα13) (Homo sapiens, UniProt Q9Y2T6, G152W); test: BRET² G protein dissociation assay, GPR55 G152W with Gα13
From the text: (§1) To validate the functionality of the GPR55 cryo-EM construct, we conducted bioluminescence resonance energy transfer 2 (BRET²)-based G protein dissociation assays[46],[47] using an engineered heterotrimeric G13 protein. The N-terminal GFP fusion of the receptor was additionally modified with a G67A mutation to disrupt fluorescence properties. We employed human embryonic kidney (HEK) cells overexpressing wt or mutant GPR55 together with Gβ3, Gγ9-GFP, and Gα13 tagged with Renilla luciferase 8 (Rluc8).
(§2) G protein dissociation assays were performed according to the original protocols of the TRUPATH BRET² assay[47],[87] but with subtle modifications as previously described[61],[88],[89]. All reagents and cells were obtained from Thermo Fisher Scientific unless indicated otherwise. The coding sequences for the G protein biosensors[47] (Gα12-Rluc8, Gα13-Rluc8, wt Gβ3, and Gγ9-GFP), the wt GPR55, the construct used for cryo-EM (with GFP bearing a G67A mutation to disrupt fluorescence properties[48] for BRET² assays), GPR55 binding pocket mutants (G152^4.56F, G152^4.56W, N171^ECL2Q, N171^ECL2A, T176^5.33A, R253^6.62A), and the wt TBXA2R were codon-optimized for Homo sapiens, gene-synthesized, and sub-cloned into pcDNA^TM3.1(+) between NheI and HindIII restriction sites by GeneArt (Thermo Fisher Scientific). […] Freshly grown cells were washed with Dulbecco’s Balanced Salt Solution (DPBS, cat. #14200075) and detached using trypsin-ethylenediaminetetraacetic acid (trypsin-EDTA) (cat. #25300-062). Then, the cells were reconstituted to 500,000 cells per mL with fresh medium, and 1,000,000 cells were seeded into each well of a 6-well plate. After 3 h incubation at 37 °C and 5% CO2, adherent cells were transfected with 600 ng DNA (1:1:1:1 ratio of plasmid DNA for GPR55, wt Gβ3, Gγ9-GFP, and Gα12-Rluc8 or Gα13-Rluc8). Plasmid DNA was mixed with 1.5 µL Lipofectamine^TM 2000 (cat. #11668027) in Opti-MEM^TM medium (cat. #31985062) and incubated for 20 min. Then, the mixture was added to each well of the 6-well plate following 24 h incubation at 37 °C and 5% CO2. Transfected cells were washed with DPBS, detached using EDTA (Versene, cat. #15040066), and reconstituted into fresh medium at 500,000 cells mL^−1. From this suspension, 50,000 cells were seeded into each well of a white-bottom 96-well plate (Nunc^TM MicroWell^TM 96 wells, cat. #136101) following overnight incubation at 37 °C and 5% CO2. Then, the adherent cells were washed with assay medium [Hank’s balanced salt solution (HBSS, cat. #14065056) plus 20 mM HEPES pH 7.4 (cat. #15630056)] and finally reconstituted into 50 µL of the same medium. […] Methoxy e-Coelenterazine was used as luciferase substrate (Prolume Purple, NanoLight Technology, cat. #369), reconstituted at 1 mM in methanol and diluted to 37.5 µM with assay buffer (7.5 µM final assay concentration). The assay was started by the addition of 20 µL luciferase substrate to each well of the assay plate using a Multidrop^TM Combi reagent dispenser (Thermo Fisher Scientific), followed by 5 min incubation at room temperature. Then, 30 µL of agonist dilutions or DMSO control was added (final DMSO concentration 1.5%), followed by an additional 5 min incubation at room temperature. BRET² measurements were performed with a PHERAstar® FSX microplate reader (BMG LABTECH) using a BRET² filter (donor emission 370–450 nm, acceptor emission 500–530 nm) at the maximum fluorescence gain of 3600. BRET² ratios were calculated by dividing GFP emission signals from Rluc8 emission counts. Buffer-DMSO controls were subtracted from each data point to calculate ΔBRET² ratios.

[2] = target: GPR55 mutant N171Q (Gα13) (Homo sapiens, UniProt Q9Y2T6, N171Q); test: BRET² G protein dissociation assay, GPR55 N171Q with Gα13
GPR55 mutant N171Q (Gα13), sequence (Q9Y2T6 whole entry N171Q): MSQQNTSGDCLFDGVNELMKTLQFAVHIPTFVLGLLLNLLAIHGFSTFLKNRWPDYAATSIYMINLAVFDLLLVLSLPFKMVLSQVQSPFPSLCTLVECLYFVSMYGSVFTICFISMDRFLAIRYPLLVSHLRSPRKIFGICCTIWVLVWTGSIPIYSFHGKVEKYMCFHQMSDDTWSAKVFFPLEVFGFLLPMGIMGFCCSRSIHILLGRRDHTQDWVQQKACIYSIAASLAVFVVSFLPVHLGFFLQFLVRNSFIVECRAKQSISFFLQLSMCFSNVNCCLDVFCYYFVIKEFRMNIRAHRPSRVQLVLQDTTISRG
GPR55 mutant N171Q (Gα13), sequence (Q14344 whole entry partner): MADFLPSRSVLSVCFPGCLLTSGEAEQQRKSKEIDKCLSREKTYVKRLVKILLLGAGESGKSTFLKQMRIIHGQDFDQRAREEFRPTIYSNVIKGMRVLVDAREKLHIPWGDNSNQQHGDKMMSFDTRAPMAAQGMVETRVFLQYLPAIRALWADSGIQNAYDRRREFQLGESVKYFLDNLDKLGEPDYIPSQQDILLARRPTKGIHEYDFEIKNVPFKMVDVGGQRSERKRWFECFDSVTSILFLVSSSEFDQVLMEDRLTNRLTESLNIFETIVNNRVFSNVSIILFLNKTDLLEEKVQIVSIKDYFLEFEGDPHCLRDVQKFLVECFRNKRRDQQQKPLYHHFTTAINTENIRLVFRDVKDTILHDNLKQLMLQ
GPR55 mutant N171Q (Gα13), sequence (P16520 whole entry partner): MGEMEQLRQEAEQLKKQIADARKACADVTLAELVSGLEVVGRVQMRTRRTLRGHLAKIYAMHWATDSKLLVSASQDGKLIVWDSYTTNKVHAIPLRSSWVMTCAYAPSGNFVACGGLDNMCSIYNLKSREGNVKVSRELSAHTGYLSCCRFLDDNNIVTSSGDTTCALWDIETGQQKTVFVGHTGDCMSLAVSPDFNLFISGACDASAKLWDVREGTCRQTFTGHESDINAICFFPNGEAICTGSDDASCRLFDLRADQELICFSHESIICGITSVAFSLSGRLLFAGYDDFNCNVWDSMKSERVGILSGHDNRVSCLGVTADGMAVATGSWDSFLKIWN
GPR55 mutant N171Q (Gα13), sequence (O14610 1-66 partner limits assumed): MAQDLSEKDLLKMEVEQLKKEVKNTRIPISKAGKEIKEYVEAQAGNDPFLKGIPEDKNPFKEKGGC
From the text: as §1, §2

[3] = target: GPR55 mutant G152F (Gα13) (Homo sapiens, UniProt Q9Y2T6, G152F); test: BRET² G protein dissociation assay, GPR55 G152F with Gα13
GPR55 mutant G152F (Gα13), sequence (Q9Y2T6 whole entry G152F): as the sequence (Q9Y2T6 whole entry N171Q) above, with G152F, Q171N counted along it
GPR55 mutant G152F (Gα13), sequence (Q14344 whole entry partner): as the sequence (Q14344 whole entry partner) above
GPR55 mutant G152F (Gα13), sequence (P16520 whole entry partner): as the sequence (P16520 whole entry partner) above
GPR55 mutant G152F (Gα13), sequence (O14610 1-66 partner limits assumed): as the sequence (O14610 1-66 partner limits assumed) above
From the text: as §1, §2

GPR55 mutant G152W (Gα13), sequence (Q9Y2T6 whole entry G152W, the tested form may be a part): as the sequence (Q9Y2T6 whole entry N171Q) above, with G152W, Q171N counted along it
GPR55 mutant G152W (Gα13), sequence (Q14344 whole entry partner, the tested form may be a part): as the sequence (Q14344 whole entry partner) above
GPR55 mutant G152W (Gα13), sequence (P16520 whole entry partner, the tested form may be a part): as the sequence (P16520 whole entry partner) above
GPR55 mutant G152W (Gα13), sequence (O14610 1-66 partner limits assumed): as the sequence (O14610 1-66 partner limits assumed) above

Mean (plotted) BRET² response, GPR55-G152W-G13 ([1]; Concentration 10 pM): 0.00225
Mean (plotted) BRET² response, GPR55-G152W-G13 ([1]; Concentration 30 pM): -0.00435
Mean (plotted) BRET² response, GPR55-G152W-G13 ([1]; Concentration 100 pM): -0.00495
Mean (plotted) BRET² response, GPR55-G152W-G13 ([1]; Concentration 300 pM): -0.0004516
Mean (plotted) BRET² response, GPR55-G152W-G13 ([1]; Concentration 1e-9 M): -0.001887
Mean (plotted) BRET² response, GPR55-G152W-G13 ([1]; Concentration 3e-9 M): 7.154e-5
Mean (plotted) BRET² response, GPR55-G152W-G13 ([1]; Concentration 1e-8 M): -0.01413
Mean (plotted) BRET² response, GPR55-G152W-G13 ([1]; Concentration 3e-8 M): -6.439e-5
Mean (plotted) BRET² response, GPR55-G152W-G13 ([1]; Concentration 1e-7 M): 0.001032
Mean (plotted) BRET² response, GPR55-G152W-G13 ([1]; Concentration 3e-7 M): 0.002926
Mean (plotted) BRET² response, GPR55-G152W-G13 ([1]; Concentration 1e-6 M): -0.00228
Mean (plotted) BRET² response, GPR55-G152W-G13 ([1]; Concentration 3e-6 M): -0.002139
Mean (plotted) BRET² response, GPR55-G152W-G13 ([1]; Concentration 1e-5 M): -0.008827
Mean (plotted) BRET² response, GPR55-G152W-G13 ([1]; Concentration 3e-5 M): -0.0048
Mean (plotted) BRET² response, GPR55-N171Q-G13 ([2]; Concentration 10 pM): 0.0013
Mean (plotted) BRET² response, GPR55-N171Q-G13 ([2]; Concentration 30 pM): 0.00095
Mean (plotted) BRET² response, GPR55-N171Q-G13 ([2]; Concentration 100 pM): 0.00685
Mean (plotted) BRET² response, GPR55-N171Q-G13 ([2]; Concentration 300 pM): -0.0003198
Mean (plotted) BRET² response, GPR55-N171Q-G13 ([2]; Concentration 1e-9 M): 0.003698
Mean (plotted) BRET² response, GPR55-N171Q-G13 ([2]; Concentration 3e-9 M): 0.002984
Mean (plotted) BRET² response, GPR55-N171Q-G13 ([2]; Concentration 1e-8 M): -0.00933
Mean (plotted) BRET² response, GPR55-N171Q-G13 ([2]; Concentration 3e-8 M): 0.006599
Mean (plotted) BRET² response, GPR55-N171Q-G13 ([2]; Concentration 1e-7 M): 0.005054
Mean (plotted) BRET² response, GPR55-N171Q-G13 ([2]; Concentration 3e-7 M): 0.005811
Mean (plotted) BRET² response, GPR55-N171Q-G13 ([2]; Concentration 1e-6 M): 0.005259
Mean (plotted) BRET² response, GPR55-N171Q-G13 ([2]; Concentration 3e-6 M): -0.001778
Mean (plotted) BRET² response, GPR55-N171Q-G13 ([2]; Concentration 1e-5 M): 0.001984
Mean (plotted) BRET² response, GPR55-N171Q-G13 ([2]; Concentration 3e-5 M): -0.005542
Mean (plotted) BRET² response, GPR55-G152F-G13 ([3]; Concentration 10 pM): -0.003
Mean (plotted) BRET² response, GPR55-G152F-G13 ([3]; Concentration 30 pM): 0.00205
Mean (plotted) BRET² response, GPR55-G152F-G13 ([3]; Concentration 100 pM): 0.0008
Mean (plotted) BRET² response, GPR55-G152F-G13 ([3]; Concentration 300 pM): -0.003135
Mean (plotted) BRET² response, GPR55-G152F-G13 ([3]; Concentration 1e-9 M): 0.0004643
Mean (plotted) BRET² response, GPR55-G152F-G13 ([3]; Concentration 3e-9 M): -0.004129
Mean (plotted) BRET² response, GPR55-G152F-G13 ([3]; Concentration 1e-8 M): -0.009075
Mean (plotted) BRET² response, GPR55-G152F-G13 ([3]; Concentration 3e-8 M): -0.001052
Mean (plotted) BRET² response, GPR55-G152F-G13 ([3]; Concentration 1e-7 M): -0.0003089
Mean (plotted) BRET² response, GPR55-G152F-G13 ([3]; Concentration 3e-7 M): -0.001149
Mean (plotted) BRET² response, GPR55-G152F-G13 ([3]; Concentration 1e-6 M): -0.0006267
Mean (plotted) BRET² response, GPR55-G152F-G13 ([3]; Concentration 3e-6 M): -0.009104
Mean (plotted) BRET² response, GPR55-G152F-G13 ([3]; Concentration 1e-5 M): -0.008346
Mean (plotted) BRET² response, GPR55-G152F-G13 ([3]; Concentration 3e-5 M): -0.007499
Structure (SMILES): CCCCC[C@H](O)/C=C/[C@@H]1[C@@H](C/C=C\CCCC(=O)O)[C@H]2CO[C@@H]1C2 [U-46619]
